Laboratory results reported in patent US12077503B2, “Substituted cyclic amides and their use as herbicides” (FMC CORPORATION, priority 2015, dated 2024).

Legend:
Assay type in all cases: in vivo
[1] = test system: barnyardgrass (Echinochloa crus-galli); test: Test G Post-Emergence Protocol; conditions: Echinochloa crus-galli, post-emergence, 312 h
Outline: (§1)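 Post-emergence herbicidal damage, scored visually 0–100 at 13 days. Application at 15.625, 62.5 or 250 g/ha onto 8-day-old plants grown under glasshouse control.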

[2] = test system: giant foxtail (Setaria faberi); test: Test G Post-Emergence Protocol; conditions: Setaria faberi, post-emergence, 312 h
Outline: as §1

[3] = test system: ivy-leaved morning glory (Ipomoea hederacea); test: Test G Post-Emergence Protocol; conditions: Ipomoea, post-emergence, 312 h
Outline: as §1

[4] = test system: velvetleaf (Abutilon theophrasti); test: Test G Post-Emergence Protocol; conditions: Abutilon theophrasti, post-emergence, 312 h
Outline: as §1

[5] = test system: redroot pigweed (Amaranthus retroflexus); test: Test G Post-Emergence Protocol; conditions: Amaranthus retroflexus, post-emergence, 312 h
Outline: as §1

[6] = test system: corn (Zea mays); test: Test G Post-Emergence Protocol; conditions: Zea mays, post-emergence, 312 h
Outline: as §1

[7] = test system: barnyardgrass (Echinochloa crus-galli); test: Test G Pre-Emergence Protocol; conditions: Echinochloa crus-galli, pre-emergence, 312 h, evaluated after 13 days
Outline: (§2)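 Herbicidal effect was rated 13 days post-application on a scale where 100 equals total damage. Spraying took place the day after sowing, using 15.625, 62.5 or 250 g/ha of compound in a 50:50 acetone/water solution with 0.5% Tween 20.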

[8] = test system: giant foxtail (Setaria faberi); test: Test G Pre-Emergence Protocol; conditions: Setaria faberi, pre-emergence, 312 h, evaluated after 13 days
Outline: as §2

[9] = test system: ivy-leaved morning glory (Ipomoea hederacea); test: Test G Pre-Emergence Protocol; conditions: Ipomoea, pre-emergence, 312 h, evaluated after 13 days
Outline: as §2

[10] = test system: velvetleaf (Abutilon theophrasti); test: Test G Pre-Emergence Protocol; conditions: Abutilon theophrasti, pre-emergence, 312 h, evaluated after 13 days
Outline: as §2

[11] = test system: redroot pigweed (Amaranthus retroflexus); test: Test G Pre-Emergence Protocol; conditions: Amaranthus retroflexus, pre-emergence, 312 h, evaluated after 13 days
Outline: as §2

[12] = test system: corn (Zea mays); test: Test G Pre-Emergence Protocol; conditions: Zea mays, pre-emergence, 312 h, evaluated after 13 days
Outline: as §2

Which results are given for `Cc1cccc(NC(=O)[C@@H]2C(=O)N(C)C[C@H]2c2ccc(C(F)(F)F)cc2)c1Br` (racemic) [Compound 1617]?
pest or weed control at 15.625 g/ha ([1]; 15.625 g ai/ha, evaluated after 13 days (100=total damage to plant; 0=no damage to plant), read-out: Barnyardgrass damage rating): 0%; pest or weed control at 62.5 g/ha ([1]; 62.5 g ai/ha, evaluated after 13 days, read-out: Barnyardgrass damage rating (100=total damage to plant; 0=no damage to plant)): 0%; pest or weed control at 250 g/ha ([1]; 250 g ai/ha, evaluated after 13 days, read-out: damage to plant, Barnyardgrass (100=total damage to plant; 0=no damage to plant)): 60%; pest or weed control at 15.625 g/ha ([2]; 15.625 g ai/ha, evaluated after 13 days (100=total damage to plant; 0=no damage to plant), read-out: Foxtail, Giant damage rating): 20%; pest or weed control at 62.5 g/ha ([2]; 62.5 g ai/ha, evaluated after 13 days, read-out: Foxtail, Giant damage rating (100=total damage to plant; 0=no damage to plant)): 40%; pest or weed control at 250 g/ha ([2]; 250 g ai/ha, evaluated after 13 days, read-out: damage to plant, Foxtail, Giant (100=total damage to plant; 0=no damage to plant)): 70%; pest or weed control at 15.625 g/ha ([3]; 15.625 g ai/ha, evaluated after 13 days (100=total damage to plant; 0=no damage to plant), read-out: Morningglory, Ivy-leaved damage rating): 0%; pest or weed control at 62.5 g/ha ([3]; 62.5 g ai/ha, evaluated after 13 days, read-out: Morningglory, Ivy-leaved damage rating (100=total damage to plant; 0=no damage to plant)): 0%; pest or weed control at 250 g/ha ([3]; 250 g ai/ha, evaluated after 13 days, read-out: damage to plant, Morningglory, Ivy-leaved (100=total damage to plant; 0=no damage to plant)): 0%; pest or weed control at 15.625 g/ha ([4]; 15.625 g ai/ha, evaluated after 13 days (100=total damage to plant; 0=no damage to plant), read-out: Velvetleaf damage rating): 0%; pest or weed control at 62.5 g/ha ([4]; 62.5 g ai/ha, evaluated after 13 days, read-out: Velvetleaf damage rating (100=total damage to plant; 0=no damage to plant)): 0%; pest or weed control at 250 g/ha ([4]; 250 g ai/ha, evaluated after 13 days, read-out: damage to plant, Velvetleaf (100=total damage to plant; 0=no damage to plant)): 0%; pest or weed control at 15.625 g/ha ([5]; 15.625 g ai/ha, evaluated after 13 days (100=total damage to plant; 0=no damage to plant), read-out: Pigweed, Redroot damage rating): 0%; pest or weed control at 62.5 g/ha ([5]; 62.5 g ai/ha, evaluated after 13 days, read-out: Pigweed, Redroot damage rating (100=total damage to plant; 0=no damage to plant)): 0%; pest or weed control at 250 g/ha ([5]; 250 g ai/ha, evaluated after 13 days, read-out: damage to plant, Pigweed, Redroot (100=total damage to plant; 0=no damage to plant)): 0%; plant injury at 15.625 g/ha ([6]; 15.625 g ai/ha, evaluated after 13 days (100=total damage to plant; 0=no damage to plant), read-out: Corn damage rating): 0%; plant injury at 62.5 g/ha ([6]; 62.5 g ai/ha, evaluated after 13 days, read-out: Corn damage rating (100=total damage to plant; 0=no damage to plant)): 0%; plant injury at 250 g/ha ([6]; 250 g ai/ha, evaluated after 13 days, read-out: damage to plant, Corn (100=total damage to plant; 0=no damage to plant)): 0%; pest or weed control at 15.625 g/ha ([7]; 15.625 g ai/ha, read-out: Barnyard grass damage rating (100=total damage to plant; 0=no damage to plant)): 10%; pest or weed control at 62.5 g/ha ([7]; 62.5 g ai/ha, 100=total damage to plant, 0=no damage to plant, read-out: plant damage rating, Barnyardgrass): 30%; pest or weed control at 250 g/ha ([7]; 250 g ai/ha, read-out: Barnyardgrass damage rating (100=total damage to plant; 0=no damage to plant)): 80%; pest or weed control at 15.625 g/ha ([8]; 15.625 g ai/ha, read-out: Foxtail, Giant damage rating (100=total damage to plant; 0=no damage to plant)): 20%; pest or weed control at 62.5 g/ha ([8]; 62.5 g ai/ha, 100=total damage to plant, 0=no damage to plant, read-out: plant damage rating, Foxtail, Giant): 80%; pest or weed control at 250 g/ha ([8]; 250 g ai/ha, read-out: Foxtail, Giant damage rating (100=total damage to plant; 0=no damage to plant)): 90%; pest or weed control at 15.625 g/ha ([9]; 15.625 g ai/ha, read-out: Morning-glory, Ivy-leaved damage rating (100=total damage to plant; 0=no damage to plant)): 0%; pest or weed control at 62.5 g/ha ([9]; 62.5 g ai/ha, 100=total damage to plant, 0=no damage to plant, read-out: plant damage rating, Morningglory, Ivy-leaved): 0%; pest or weed control at 250 g/ha ([9]; 250 g ai/ha, read-out: Morningglory, Ivy-leaved damage rating (100=total damage to plant; 0=no damage to plant)): 0%; pest or weed control at 15.625 g/ha ([10]; 15.625 g ai/ha, read-out: Velvetleaf damage rating (100=total damage to plant; 0=no damage to plant)): 0%; pest or weed control at 62.5 g/ha ([10]; 62.5 g ai/ha, 100=total damage to plant, 0=no damage to plant, read-out: plant damage rating, Velvetleaf): 0%; pest or weed control at 250 g/ha ([10]; 250 g ai/ha, read-out: Velvetleaf damage rating (100=total damage to plant; 0=no damage to plant)): 10%; pest or weed control at 15.625 g/ha ([11]; 15.625 g ai/ha, read-out: Pigweed, Redroot damage rating (100=total damage to plant; 0=no damage to plant)): 0%; pest or weed control at 62.5 g/ha ([11]; 62.5 g ai/ha, 100=total damage to plant, 0=no damage to plant, read-out: plant damage rating, Pigweed, Redroot): 10%; pest or weed control at 250 g/ha ([11]; 250 g ai/ha, read-out: Pigweed, Redroot damage rating (100=total damage to plant; 0=no damage to plant)): 20%; plant injury at 15.625 g/ha ([12]; 15.625 g ai/ha, read-out: Corn damage rating (100=total damage to plant; 0=no damage to plant)): 0%; plant injury at 62.5 g/ha ([12]; 62.5 g ai/ha, 100=total damage to plant, 0=no damage to plant, read-out: plant damage rating, Corn): 0%; plant injury at 250 g/ha ([12]; 250 g ai/ha, read-out: Corn damage rating (100=total damage to plant; 0=no damage to plant)): 0%
